How the values were obtained:
[1] = Moisture sorption/desorption (VTI SGA-100 moisture balance); type: physicochemical; details: for hygroscopicity: 5 to 95% RH
From the text: The samples were not dried prior to analysis.

[2] = XRPD after storage in a closed vial at ambient conditions; type: physicochemical; details: 31 days
Procedure: X-ray powder diffraction analyses were carried out on a Shimadzu XRD-6000 X-ray powder diffractometer using Cu Kα radiation having a wavelength of 1.5406 Å. The instrument is equipped with a fine-focus X-ray tube. The tube power was set by setting potential difference at 40 kV, and current 40 mA. The divergence and scattering slits were set at 1° and the receiving slit was set at 0.15 mm. Diffracted radiation was detected by a NaI scintillation detector. A theta-two theta continuous scan at 3°/min (0.4 sec/0.02° step) from 2.5 to 40 °2θ was performed. A silicon standard was analyzed each day to check the instrument alignment. Each sample was analyzed in a quartz sample holder. A variable temperature (VT-XRPD) experiment was performed on one form. The sample was prepared for analysis by pressing it into a variable temperature holder. A powder pattern was collected initially at 35° C. and again, after heating, at 200° C.

[3] = Dehydration/desolvation under vacuum, XRPD; type: physicochemical
From the text: The characterization of this weight loss as THF solvent is supported by the ^1H NMR data.

[4] = clinical trials, cited from earlier work

In the case of CC[C@@]1(O)C(=O)OCc2c1cc1n(c2=O)Cc2cc3c([N+](=O)[O-])cccc3nc2-1 [Form A, 9-nitrocamptothecin], the “water gained upon equilibration to 5% RH” value ([1]; 5% RH) is reported as 0.01% and the hygroscopicity [1] is reported as “not hygroscopic”.

In the case of CC[C@@]1(O)C(=O)OCc2c1cc1n(c2=O)Cc2cc3c([N+](=O)[O-])cccc3nc2-1 [Form B, 9-nitrocamptothecin], the “water lost upon equilibration at 5% RH” value ([1]; 5% RH) is reported as 0.98%, the hygroscopicity [1] is reported as “relatively hygroscopic” and the “stability of the crystalline polymorph (XRPD pattern unchanged)” value [2] is reported as “relatively stable”.

For CC[C@@]1(O)C(=O)OCc2c1cc1n(c2=O)Cc2cc3c([N+](=O)[O-])cccc3nc2-1 [Form C, 9-nitrocamptothecin], the “form after attempted desolvation” value [3] was “becomes amorphous”.

In the case of CC[C@@](O)(C(=O)[O-])c1cc2n(c(=O)c1CO)Cc1cc3ccccc3nc1-2.[Na+] [Sodium camptothecin], the side effects ([4]; administered intravenously) is given as “unpredictable side effects such as myelosuppression and hemorrhagic cystitis” and the antineoplastic activity ([4]; early 1970's) is given as “found to have antineoplastic activity”.
